Laboratory results reported in article PMC5677366, “Cyclic di-GMP differentially tunes a bacterial flagellar motor through a novel class of CheY-like regulators” (eLife, 2017).
Entries after “also recorded” stand apart in the source; their conditions may differ.

How the values were obtained:
StrepII-CleD [1] = target: T1, StrepII-CleD (Caulobacter vibrioides, UniProt Q9A3V2); test: UV cross-linking competition with non-labeled nucleotides; type: binding, Caulobacter crescentus; conditions: 1 µM StrepII-CleD, 0.25 µM 33P-labelled c-di-GMP
Description: Synthesis of radiolabeled c-di-GMP using YdeH and UV light-induced cross-linking experiments in conical 96-well plates (Greiner Bio-One) were performed as described recently ([Steiner et al., 2013]; [Christen et al., 2005]). […] As a control BSA was included. For competition experiments unlabeled nucleotides were incubated with the protein for 15 min prior the addition of c-[^33P] -di-GMP. The 96-well plates were then UV-irradiated at 254 nm for 20 min using a Bio-Link crosslinker (Vilber Lourmat, France). After addition of 5 μl loading dye and boiling for 5 min the samples were subjected to SDS-PAGE. Proteins were analyzed by Coomassie staining and autoradiography. Band intensities were quantified using the ImageJ64 software and the data were fitted using GraphPad Prism version 5.04 for Windows (GraphPad Software, San Diego California USA). The Kd was calculated by non-linear regression using the ‘One site – Total binding’ equation.

CleD = test: 1H-15N HSQC NMR of 15N-CleD with FliM peptides; type: binding, Caulobacter crescentus
Description: The standard two-dimensional spectra ^1H-^15N HSQC of His-CleD with or without peptides were performed on a ^15N isotope labeled His-CleD. The His-CleD (400 µM) sample was in 20 mM sodium phosphate buffer at pH 7.0, 200 mM NaCl, 1 mM MgCl2, 5 mM 2-Mercaptoethanol, 0.02% NaN3 (w/v), and 5% (v/v) D2O with a sample volume of 270 μL. c-di-GMP was titrated to the protein sample in 2.5-fold excess. The FliM peptide from residue Ala47 to Gly62 contains an additional Trp at the N-terminus to measure concentration and to increase solubility (WASERILNQDEIDSLLG). As the corresponding ID57_WA peptide contains a Trp we used the following sequence ASERILNQDEWASLLG. Both peptides were purchased from JPT Peptide Technologies, and dissolved in 200 mM NaCl, 20 mM sodium phosphate buffer at pH 7.0, 1 mM MgCl2, 5 mM β-Mercaptoethanol, 0.02%NaN3 (w/v), and 5% (v/v) D2O. With homonuclear 2D-TOCSY and 2D-NOESY experiments the peptide proton resonances were assigned. It was confirmed, that both peptides were stable in this buffer and unfolded (data not shown). The spectrum of the purified CleD protein was recorded in the same buffer as the FliM peptides.

StrepII-CleD [2] = target: T1, StrepII-CleD; test: UV cross-linking with radiolabeled c-di-GMP; type: binding, Caulobacter crescentus
Description: Synthesis of radiolabeled c-di-GMP using YdeH and UV light-induced cross-linking experiments in conical 96-well plates (Greiner Bio-One) were performed as described recently ([Steiner et al., 2013]; [Christen et al., 2005]). Briefly, 2 μM protein was incubated for 10 min at room temperature with c-[^33P]-di-GMP in a total volume of 20 μl using PBS as buffer. As a control BSA was included. For competition experiments unlabeled nucleotides were incubated with the protein for 15 min prior the addition of c-[^33P] -di-GMP. The 96-well plates were then UV-irradiated at 254 nm for 20 min using a Bio-Link crosslinker (Vilber Lourmat, France). After addition of 5 μl loading dye and boiling for 5 min the samples were subjected to SDS-PAGE. Proteins were analyzed by Coomassie staining and autoradiography. Band intensities were quantified using the ImageJ64 software and the data were fitted using GraphPad Prism version 5.04 for Windows (GraphPad Software, San Diego California USA). The Kd was calculated by non-linear regression using the ‘One site – Total binding’ equation.

CleD-GFP [3] = target: T2, CleD-GFP (Caulobacter vibrioides, UniProt Q9A3V2); test: Isothermal titration calorimetry (ITC); type: binding, Caulobacter crescentus; conditions: ITC at 10°C
Description: (§1) ITC experiments were performed on a VP-ITC MicroCalorimeter (MicroCal, Northampton, MA, USA). Protein samples, c-di-GMP and buffer (50 mM Tris-HCl, pH 8.0, 100 mM NaCl, 5 mM MgCl2, 1 mM DTT) were degassed for 15 min prior to filling into sample cell and syringe. The sample cell contained 7.4 µM of His-CleD-GFP and the syringe contained 69.7 µM of cdG. The concentrations were determined in a spectrophotometer using a cuvette with 1 cm path length. All experiments were carried out at 10 °C with 30 injections (10 µl each) with a 250 s interval. Stir rate was 300 rpm. The data were evaluated using ITC Data Analysis in ORIGIN (MicroCal) provided by the manufacturer. The area under each peak was integrated and fitted using the built-in one-site model by non-linear least squares regression analysis.

CleD-GFP [4] = target: T2, CleD-GFP; test: 1H-NMR Jump-return imino proton spectra; type: binding, Caulobacter crescentus; conditions: difference spectrum with and without c-di-GMP, four imino H1 resonances
Description: NMR spectra were recorded at 298 K on Bruker DRX 600, and DRX 900 NMR spectrometers equipped with TXI and TCI probe heads, respectively. The one dimensional NMR spectra were recorded with a Jump-return echo sequence ([Sklenár et al., 1987]) optimized for resonances at around 12 ppm. For the complex His-CleD-GFP·c-di-GMP and apo His-CleD-GFP 16384 scans were recorded. The NMR samples were prepared as follows. The sample of apo His-CleD-GFP (30 μM) was prepared in 100 mM NaCl, 20 mM sodium phosphate buffer at pH 6.5, 0.01% NaN3 (w/v), and 5% (v/v) D2O as sample volume of 250 μL. Complex CleD-GFP·c-di-GMP: the ligand was titrated to the apo His-CleD-GFP sample from a 20 mM stock solution in twofold excess.

[5] = system: R156A mutant variant of CleD-GFP; test: ITC with R156A mutant; type: binding, Caulobacter crescentus
Description: as §1

His-CleD_R113A-GFP = His-CleD_R113A-GFP (Caulobacter vibrioides, UniProt Q9A3V2, R113A); test: ITC with R113A mutant; type: binding, Caulobacter crescentus
Description: as §1

His-SUMO = target: T3, His-SUMO (Saccharomyces cerevisiae, UniProt Q12306); test: MST; type: binding
T3 construct: made in house; host or cells: E. coli BL21 (DE3)
Description: (§2) MST experiments were carried out in a Monolith NT.115 device using standard treated capillaries (NanoTemper Technologies). Fluorescence changes resulting from thermophoresis were recorded using blue channel optics of the instrument (λex = 470 ± 15 nm, λem = 520 ± 10 nm) for the 30 s period of infrared laser heating at 40% of maximum laser power followed by a 5 s of cooling period. Measurements were performed in a buffer containing 50 mM Tris-HCl, pH 8.0, 100 mM NaCl, 5 mM MgCl2, 1 mM DTT and 0.1% Tween 20. 2'-O-(6-[Fluoresceinyl]aminohexylcarbamoyl)-cyclic diguanosine monophosphate (2’fluo-AHC-c-di-GMP, Biolog, Bremen, Germany) was added to probe the binding affinity of CleD domains. A 16-point 1:1 serial dilution series of proteins was titrated against a fixed concentration (60 nM) of 2’fluo-AHC-c-di-GMP. Data were evaluated in the program ProFit (Quansoft, Zurich, Switzerland) and fitted using the Hill equation.

[6] = target: EcCheY-ARR (wild-type ARR of CleD fused to E. coli CheY) (Caulobacter vibrioides, UniProt Q9A3V2); test: MST; type: binding; conditions: read-out: apparent Kd
Description: as §2

His-CleD (aa 19–269) = His-CleD (aa 19–269) (Caulobacter vibrioides, UniProt Q9A3V2); test: Microscale thermophoresis (MST); type: binding, Caulobacter crescentus
Description: as §2

His-CheY = target: T4, His-CheY (Escherichia coli, UniProt P0AE67); test: MST; type: binding, E. coli
T4 construct: made in house; host or cells: E. coli BL21 (DE3)
Description: as §2

[7] = target: EcCheY-ARR with R156A mutant ARR (Caulobacter vibrioides, UniProt Q9A3V2, R156A); test: MST; type: binding, E. coli; conditions: read-out: apparent Kd
Description: as §2

[8] = target: His-CleD-rec-ARR (aa 19–174) (Caulobacter vibrioides, UniProt Q9A3V2); test: MST; type: binding, Caulobacter crescentus
Description: as §2

[9] = system: isolated ARR of CleA fused to His-SUMO; test: MST; type: binding, Caulobacter crescentus
Description: as §2

His-SUMO R156A ARRCleD = test: MST; type: binding, Caulobacter crescentus
Description: as §2

His-CleD-rec (aa 19–141) = His-CleD-rec (aa 19–141) (Caulobacter vibrioides, UniProt Q9A3V2); test: MST; type: binding, Caulobacter crescentus
Description: as §2

His-SUMO R169A ARRCleD = His-SUMO R169A ARRCleD (Caulobacter vibrioides, UniProt Q9A3V2, R169A); test: MST; type: binding, Caulobacter crescentus
Description: as §2

His-CleD (aa 19–262) = His-CleD (aa 19–262) (Caulobacter vibrioides, UniProt Q9A3V2); test: MST; type: binding, Caulobacter crescentus; conditions: 60 nM ligand; variant lacking part of the CTR
Description: as §2

T1 sequence (Q9A3V2 entry or part of it): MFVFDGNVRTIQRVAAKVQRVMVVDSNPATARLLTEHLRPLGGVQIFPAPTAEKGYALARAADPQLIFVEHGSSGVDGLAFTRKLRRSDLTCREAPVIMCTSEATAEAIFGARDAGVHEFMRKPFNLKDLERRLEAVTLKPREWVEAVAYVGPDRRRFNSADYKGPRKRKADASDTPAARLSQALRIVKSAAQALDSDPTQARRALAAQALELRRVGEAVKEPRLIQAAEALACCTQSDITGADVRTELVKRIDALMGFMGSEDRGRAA
T2 sequence (Q9A3V2 entry or part of it): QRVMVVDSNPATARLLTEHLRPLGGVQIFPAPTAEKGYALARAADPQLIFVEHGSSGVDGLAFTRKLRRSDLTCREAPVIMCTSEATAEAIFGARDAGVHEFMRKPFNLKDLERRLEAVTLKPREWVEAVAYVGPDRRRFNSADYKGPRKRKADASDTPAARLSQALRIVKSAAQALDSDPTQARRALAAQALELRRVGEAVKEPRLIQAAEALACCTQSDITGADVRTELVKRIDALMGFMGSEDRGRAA
His-CleD-rec (aa 19–141), sequence (Q9A3V2 entry or part of it): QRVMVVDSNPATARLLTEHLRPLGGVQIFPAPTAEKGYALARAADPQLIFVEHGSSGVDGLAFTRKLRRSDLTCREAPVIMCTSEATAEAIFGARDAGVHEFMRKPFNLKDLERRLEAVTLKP
His-CleD-rec-ARR (aa 19–174), sequence (Q9A3V2 entry or part of it): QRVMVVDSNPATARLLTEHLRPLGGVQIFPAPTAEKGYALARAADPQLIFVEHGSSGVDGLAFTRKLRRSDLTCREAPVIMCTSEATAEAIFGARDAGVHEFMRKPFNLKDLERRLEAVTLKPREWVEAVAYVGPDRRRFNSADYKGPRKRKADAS
T3 sequence (Q12306 whole entry): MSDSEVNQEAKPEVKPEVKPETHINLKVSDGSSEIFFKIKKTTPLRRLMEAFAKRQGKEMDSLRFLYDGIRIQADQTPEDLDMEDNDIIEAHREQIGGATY
His-SUMO R169A ARRCleD, sequence (Q9A3V2 entry or part of it R169A): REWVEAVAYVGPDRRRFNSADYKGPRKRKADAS
EcCheY-ARR with R156A mutant ARR, sequence (Q9A3V2 entry or part of it R156A): as the sequence (Q9A3V2 entry or part of it R169A) above
EcCheY-ARR with R156A mutant ARR, sequence (P0AE67 2-129, further chain): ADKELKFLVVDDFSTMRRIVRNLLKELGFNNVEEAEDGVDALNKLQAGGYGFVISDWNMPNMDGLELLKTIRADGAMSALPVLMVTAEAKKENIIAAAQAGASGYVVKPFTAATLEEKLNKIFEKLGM
EcCheY-ARR (wild-type ARR of CleD fused to E. coli CheY), sequence (P0AE67 2-129): as the sequence (P0AE67 2-129, further chain) above
EcCheY-ARR (wild-type ARR of CleD fused to E. coli CheY), sequence (Q9A3V2 entry or part of it): as the sequence (Q9A3V2 entry or part of it R169A) above
T4 sequence (P0AE67 whole entry): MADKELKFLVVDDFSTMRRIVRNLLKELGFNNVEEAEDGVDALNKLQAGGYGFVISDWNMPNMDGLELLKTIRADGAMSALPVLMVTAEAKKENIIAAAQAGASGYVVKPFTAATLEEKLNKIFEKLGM
His-CleD (aa 19–262), sequence (Q9A3V2 entry or part of it): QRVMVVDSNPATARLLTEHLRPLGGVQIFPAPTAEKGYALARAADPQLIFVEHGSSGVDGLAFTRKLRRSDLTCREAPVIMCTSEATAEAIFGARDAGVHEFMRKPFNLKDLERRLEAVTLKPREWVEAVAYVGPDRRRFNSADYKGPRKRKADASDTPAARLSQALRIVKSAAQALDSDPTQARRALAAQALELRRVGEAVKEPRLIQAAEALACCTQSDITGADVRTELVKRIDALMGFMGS

Q: For Nc1nc2c(ncn2[C@@H]2O[C@H](COP(=O)(O)OP(=O)(O)OP(=O)(O)O)[C@@H](O)[C@H]2O)c(=O)[nH]1 [GTP], which “concentration required for a similar reduction of 33P-labelled c-di-GMP binding, relative to non-labeled c-di-GMP” value (StrepII-CleD [1]) is on record?
A: 1000 fold

Q: With “WASERILNQDEIDSLLG [FliM wild-type peptide, FliM peptide from residue Ala47 to Gly62 with an additional Trp at the N-terminus]” as the compound, how does the “number of CleD resonances with shift changes” value (CleD; in the presence of c-di-GMP, peptide in two-fold excess) read?
A: approximately 10 resonances

Q: What about the “HSQC spectrum change (in words)” value (CleD; without c-di-GMP) of the same compound?
A: indistinguishable from the spectrum recorded for CleD alone

Q: For Nc1nc2c(ncn2[C@@H]2O[C@@H]3COP(=O)(O)O[C@H]4[C@@H](O)[C@H](n5cnc6c(=O)[nH]c(N)nc65)O[C@@H]4COP(=O)(O)O[C@H]3[C@H]2O)c(=O)[nH]1 [c-di-GMP, Cyclic di-GMP], which Kd (StrepII-CleD [2]) is on record?
A: 212 nM

Q: And the “binding (in words)” value (StrepII-CleD [2]; purified Strep-tagged CleD, radiolabeled c-di-GMP)?
A: high affinity binding in the nanomolar range

Q: And the Kd (CleD-GFP [3])?
A: 86 nM

Q: And the binding stoichiometry (CleD-GFP [4])?
A: two molecules of c-di-GMP are bound to one CleD protomer; also recorded: one c-di-GMP dimer to one protein monomer

Q: What about the “binding (in words)” value [5] of the same compound?
A: completely abolished

Q: And the “competition with labeled probe for binding (in words)” value (StrepII-CleD [1])?
A: effectively compete; also recorded: equimolar amounts of non-labeled c-di-GMP reduced binding

Q: What about the Kd (His-CleD_R113A-GFP) of the same compound?
A: 221 nM

Q: What about the “increase of the Kd as compared to wild-type CleD” value (His-CleD_R113A-GFP; ITC) of the same compound?
A: 3 fold

Q: How did the “concentration required for a similar reduction of 33P-labelled c-di-GMP binding, relative to non-labeled c-di-GMP” value (StrepII-CleD [1]) turn out when Nc1nc2c(ncn2[C@@H]2O[C@H](COP(=O)(O)O[C@H]3[C@@H](O)[C@H](n4cnc5c(=O)[nH]c(N)nc54)O[C@@H]3COP(=O)(O)O)[C@@H](O)[C@H]2O)c(=O)[nH]1 [pGpG] was run?
A: 1000 fold

Q: Which “HSQC spectrum change (in words)” value (CleD; with c-di-GMP) does the source give for “ASERILNQDEWASLLG [FliM_ID57WA mutant peptide, FliM residues 47–62 peptide with ID57WA substitution]” here?
A: indistinguishable from the spectrum recorded for CleD alone

Q: With “2'-O-(6-[Fluoresceinyl]aminohexylcarbamoyl)-cyclic diguanosine monophosphate [flr-cdG]” as the compound, how does the “binding (in words)” value (His-SUMO) read?
A: not SUMO itself were able to bind flr-cdG

Q: What about the Kd [6] of the same compound?
A: 14800 nM

Q: And the Kd (His-CleD (aa 19–269); 60 nM ligand)?
A: 1200 nM

Q: What about the “Kd relative to affinities determined for c-di-GMP itself” value (His-CleD (aa 19–269); full-length CleD and variant lacking part of the CTR) of the same compound?
A: roughly 10 fold

Q: And the “binding (in words)” value (His-CheY)?
A: failed to bind

Q: What about the Kd [7] of the same compound?
A: 471000 nM

Q: What about the “dissociation constant relative to full-length protein” value [8] of the same compound?
A: 5 fold

Q: What about the Kd ([8]; 60 nM ligand) of the same compound?
A: 6200 nM

Q: What about the “binding (in words)” value [9] of the same compound?
A: failed to bind

Q: What about the “binding (in words)” value (His-SUMO R156A ARRCleD) of the same compound?
A: strongly reduced binding; also recorded: completely abolished

Q: What about the “dissociation constant relative to full-length protein” value (His-CleD-rec (aa 19–141)) of the same compound?
A: 40 fold

Q: What about the Kd (His-CleD-rec (aa 19–141); 60 nM ligand) of the same compound?
A: 41700 nM

Q: And the “reduction of binding relative to wild-type ARR” value (His-SUMO R169A ARRCleD)?
A: about 5 fold

Q: And the Kd (His-CleD (aa 19–262))?
A: 1300 nM
